Source: patent US20250213700A1, “COMPOUNDS, COMPOSITIONS, AND METHODS FOR CELL-SPECIFIC PHARMACOLOGY” (Duke University, priority 2022, published 2025)

Target: T1, HTP in D1 cells of left dorsal striatum (Rhodococcus rhodochrous, UniProt P0A3G2, A155T/A167V/A172T/A224E/C128F/C176G/D78G/E160K/E257K/H272N/K175M/K195N/L47V/L88M/N227D/S58T/T264A/Y273L/Y87F)
T1 construct: SSnlg signal peptide (residues 1-49 of mouse neuroligin-1) (N); Thy1 GPI anchor signal (C); expressed in transfected cells; host or cells: mouse neurons transduced in vivo with AAV-DIO-+HTPGPI (D1-Cre dorsal striatum; PV::cre retinal ganglion cells)
T1 sequence (P0A3G2 other isoform, or with tags, fused parts or gaps with the stated changes): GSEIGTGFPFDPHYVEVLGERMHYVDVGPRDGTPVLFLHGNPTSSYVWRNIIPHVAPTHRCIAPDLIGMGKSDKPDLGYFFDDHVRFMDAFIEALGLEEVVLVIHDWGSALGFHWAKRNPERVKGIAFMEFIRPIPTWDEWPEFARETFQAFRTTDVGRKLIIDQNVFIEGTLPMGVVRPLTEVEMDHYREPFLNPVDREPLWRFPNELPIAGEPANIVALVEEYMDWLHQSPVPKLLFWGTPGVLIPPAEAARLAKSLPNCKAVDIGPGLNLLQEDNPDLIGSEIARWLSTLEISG
Assay: histology of tracer dye capture in dorsal striatum
Type: in vivo, mouse
Conditions: 3 µM dye+30 µM drug, histology 24 hr later
Experimental: FIG. 3A-3F show quantitative engagement of the DART.2 platform. (FIG. 3A) Mice with ^+HTP or ^ddHTP in D1 cells of left dorsal striatum. Open field (1 hr) before and after Alexa488.1^DART.2+YM90K.1^DART.2 (3 µM dye+30 µM drug, 1 μL in 10 min). Histology performed 24 hr later. Left, dTomato expression and Alexa488.1^DART.2 capture from a ^+HTP mouse. […] Right, open-field turning vs dye capture. […] Dye capture can be used as a behavior-independent inclusion criterion (shading), allowing exclusion of 4 ^+HTP mice in this dataset. (FIG. 3B) Older technology lacked tracer^DART. Here, an estimate of technical success with a non-DART dye (fluorogold) was attempted and a numerical algorithm dye-virus overlap was estimated. […] (FIG. 3C and FIG. 3D) Characterization in live mice expressing HTP in dSPNs of the left dorsal striatum. Alexa^DART.2 co-infused with YM90^KDART.2 ligand provided permanent marker of drug capture, tight correspondence between histology and behavioral potency, and 3-fold increase in behavioral potency in comparison to its predecessor. (FIG. 3E and FIG. 3F) YM90^KDART.1 in live mice for comparison with above.
Histology. […] Images were analyzed for pixel intensity using MATLAB.
These advances were combined in a mouse locomotor assay. […] Mice were perfused for histology 24 hrs later, and quantitative measurement of the integrated Alexa capture over the dorsal striatum was performed. […]

SMILES: COc1cc(CCCCl)ccc1CCOCCNC(=O)c1ccc(CNC(=O)CCOCCOCCOCCOCCOCCOCCOCCOCCOCCOCCOCCOCCOCCOCCOCCOCCOCCOCCOCCOCCOCCOCCOCCOCCOCCOCCOCCOCCOCCOCCOCCOCCOCCOCCOCCOCCn2cc(CNC(=O)c3ccc(-c4c5ccc(=N)c(S(=O)(=O)O)c-5oc5c(S(=O)(=O)O)c(N)ccc45)c(C(=O)O)c3)nn2)cc1 [Alexa488.1^DART.2, 6-amino-9-(2-carboxy-4-(((1-(1-(4-((2-(4-(3-chloropropyl)-2-methoxyphenethoxy)ethyl)carbamoyl)phenyl)-3-oxo-6,9, 12, 15, 18, 21, 24, 27, 30, 33, 36, 39, 42, 45, 48, 51, 54, 57, 60, 63, 66, 69, 72, 75, 78, 81, 84, 87, 90, 93, 96, 99, 102, 105, 108, 111-hexatriacontaoxa-2-azatridecahectan-113-yl)-1H-1,2,3-triazol-4-yl)methyl)carbamoyl)phenyl)-3-iminio-5-sulfo-3H-xanthene-4-sulfonate]
- dye capture, ddHTP mice: No dye capture detected
